Source: patent US6974835B2, “Methods for decreasing cell proliferation based on (3r,4r)-Δ8-tetrahydrocannabinol-11-oic acids” (Indevus Pharmaceuticals, Inc., priority 2000, dated 2005)

Tests used:
[1] = tested on: tumor cells; assay: Stereospecificity of inhibition of cell proliferation (D-isomer vs L-isomer); format: cell-based; settings: 25 μM dose, FIG. 2, p<0.001
[2] = tested on: J82; assay: 48 hour MTT assay, J82; settings: J82 (Bladder), 25 μM
[3] = tested on: C6 glioma cells; assay: Microscopy of treated cells (cell size, refractile bodies, electron microscopy)
[4] = tested on: HS578T; assay: 48 hour MTT assay, HS578T; settings: HS578T (Breast), 25 μM
[5] = tested on: PC3; assay: 48 hour MTT assay, PC3; settings: PC3 (Prostate), 25 μM
[6] = tested on: C6 cells; assay: Lipid incorporation assay; format: cell-based; settings: 25 μM, 14C-labeled arachidonic acid, 48 hours; for neutral lipids, increase above basal levels: FIG. 3
[7] = tested on: Du145; assay: 48 hour MTT assay, Du145; settings: Du145 (Prostate), 25 μM
[8] = tested on: U373; assay: 48 hour MTT assay, U373; settings: U373 (Brain), 25 μM
[9] = tested on: U87; assay: 48 hour MTT assay, U87; settings: U87 (Brain), 25 μM
[10] = tested on: human cell lines derived from a variety of cancer types (brain, breast, bladder, lung, and prostate); assay: 48 hour MTT assay, mean over the human cancer cell lines; settings: 25 μM, mean of the ten lines of Table 1
[11] = tested on: human glioma cell line U87 injected subcutaneously in nude mice; assay: In vivo subcutaneous model; settings: 0.1 mg/kg thrice weekly, FIG. 4
Description: In vivo subcutaneous model. 10^6 U87 cells were injected into the right flank muscle of male nu/nu BALBc mice (Charles River). Two days after inoculation, the mice received either 0.1 mg/kg ajulemic acid in 0.05 ml of safflower oil or 0.05 ml safflower oil by oral administration. Thereafter, identical dosings were performed on each Monday, Wednesday, and Friday. When visible tumors appeared, the size of the tumors were estimated by averaging the values of two roughly perpendicular diameters measurements. Visible tumors were measured on the days of drug administration.

[12] = tested on: C6 glioma cells; assay: Co-incubation with a CB1 antagonist, cell proliferation; format: cell-based; settings: 3.2 μM of a specific CB1 antagonist
[13] = tested on: Protein kinase C (PKC); assay: Protein kinase C (PKC) assay; format: cell-based; settings: C6 cells, 25 μM, for one hour
Description: Protein kinase C (PKC) assay. Cells were transferred into MEM media (0.5% serum) and cultured overnight. The next day, cells were treated with either DMSO or 25 μM ajulemic acid for the specified incubation time, after which the plates were trypsinized. 5×10^6 trypsinized cells were assayed for PKC activity using a kit (Calbiochem, cat. no. 53984).

[14] = tested on: C6 glioma cells; assay: Viability by trypan blue exclusion
[15] = tested on: WI38 cells; assay: Phase microscopy for refractile bodies, WI38; format: cell-based, rat; settings: 48 hours, same dosage

With `CCCCCCC(C)(C)c1cc(O)c2c(c1)OC(C)(C)[C@@H]1CC=C(C(=O)O)C[C@@H]21` (single isomer, unassigned) [D-isomer of ajulemic acid] the “potency of D-isomer compared to the L-isomer of ajulemic acid” value [1] was “marked decrease in the potency”.

For `CCCCCc1cc(O)c2c(c1)OC(C)(C)[C@@H]1CC=C(C(=O)O)C[C@@H]21` [THC-11-oic acid], the “Percent inhibition of human cancer cell line growth” value (“Percent inhibition” below) [2] was 1 ± 1%, the “refractile bodies noted (in words)” value ([3]; C6 glioma cells, 25 μM, 48 hours) was “no refractile bodies were noted” and the “Percent inhibition” value [4] was 2 ± 1%. The “Percent inhibition” value [5] was 1 ± 1%, the “neutral lipids, increase above basal levels” value [6] was “significant increase above basal levels was only noted for ajulemic acid” and the “Percent inhibition” value [7] was 7 ± 3%. The “Percent inhibition” value [8] was 0%, the “Percent inhibition” value [9] was 5 ± 1% and the “inhibition levels (mean±SD) over the human cell lines” value [10] was 13.1±18.5%.

With `CCCCCCC(C)(C)c1cc(O)c2c(c1)OC(C)(C)[C@@H]1CC=C(C(=O)O)C[C@@H]21` [ajulemic acid, 1′,1′-dimethylheptyl-Δ^8-THC-11-oic acid] the cell size ([3]; after 48 hours of exposure) was “marked increase in cell size”, the “appearance under electron microscopy” value ([3]; treated cells) was “neither apoptotic nor necrotic” and the “appearance and size of tumors (in words)” value [11] was “delay in both the appearance and size of tumors”. For the same compound, the “change in potency on co-incubation with CB1 antagonist” value [12] was “slight potentiation”, the “PKC activity versus control” value [13] was “approximately two-fold above that of control” and the viability rate [14] was greater than 95%. The “content of tri- and di-glyceride versus controls” value [6] was “over three-fold greater than in controls”, the “neutral lipids, increase above basal levels” value [6] was “significant increase above basal levels” and the “refractile bodies noted (in words)” value [15] was “no refractile bodies were noted”.

`CCCCCc1cc(O)c2c(c1)OC(C)(C)[C@@H]1CCC(C)=C[C@@H]21` [Δ^9-THC, tetrahydrocannabinol] was tested, and the “change in potency on co-incubation with CB1 antagonist” value [12] was 150% and the “neutral lipids, increase above basal levels” value [6] was “significant increase above basal levels was only noted for ajulemic acid”.
